In brackets after ≈: the same amount, converted by molar mass.
Legend:
[1] = system: Wolbachia within Brugia malayi Mf; assay: B. malayi microfilarial (Mf) in vitro anti-Wolbachia assay (wsp:gst qPCR); type: cell-based; settings: Brugia malayi, 144 h; B. malayi Mf, 6 days; read-out: Mf EC50
Procedure: The Mf were obtained by peritoneal lavage, using a catheter, of gerbils (Meriones unguiculatus) harbouring a patent infection of B. malayi. Mf were purified using a PD-10 desalting column (Fisher), centrifuged (311 RCF for 5 min at room temperature) before the addition of 8000 Mf/well of a 96-well plate (100 µl per well) in complete media consisting of RPMI supplemented with 10% FBS, 1% penicillin streptomycin and 1% amphotericin B. […] Each plate contained doxycycline (5 µM) and DMSO controls. After incubation at 37 °C for 6 days in 5% CO2, visual assessment of Mf motility was performed and scored from 0 to 4 per well (where 0 = no movement and 4 = highly motile). DNA extraction per sample was performed using the QIAmp DNA Mini Kit before quantitative PCR was performed to obtain the ratio of Wolbachia Surface Protein gene copy number (wsp) to Glutathione S-Transferase gene copy number (gst)[36]. The DNA was amplified using the primers as indicated in Supplementary Table 6.
(§1) The wsp:gst ratio data allowed for normalisation of the Wolbachia level to the Mf biomass for each well. The change in wsp:gst for each compound compared to the DMSO control was calculated before normalisation to the onboard doxycycline control to allow for inter-assay comparison.

[2] = Human microsome clearance; type: in vitro ADME; settings: human, human microsomes
Excerpt: (§2) The DMPK data used for triaging compounds, including LogD7.4, aqueous solubility, plasma protein binding, microsome and hepatocyte clearance measurements, were generated using the standard AstraZeneca UK high-throughput platform[37],[38].

[3] = system: THP-1 cells; assay: Mammalian cell viability counter-screen (CellTiter-Blue); type: cell-based, human; settings: Homo sapiens, 48 h, read-out: HTS IC50 mammalian toxicity
Procedure: The human monocytic THP-1 cell line (ATCC® TIB-202) used for mammalian cytotoxicity evaluation was routinely cultured in roller bottles. Growth media consisted of RPMI 1640 supplemented with 10% FBS and 2 mM L-glutamine. Cells were maintained at 37 °C with 95% humidity in 5% CO2 in a shaking incubator.
All compounds selected for secondary IC50 screen were tested in parallel for mammalian cell viability using the CellTiter-Blue® Cell Viability Assay. THP1 cells were removed from culture and plated at 1 × 10^4 cells/well (40 µl) into 384-well assay ready plates and incubated at 37 °C, 5% CO2 for 48 h at 95% humidity. After the addition of CellTiter-Blue Viability reagent (8 µl of a 1:6 dilution) the assay plates were incubated for a further 2 h before fluorescence detected using a PerkinElmer EnVision™ plate reader.

[4] = Human plasma protein binding; type: in vitro ADME; settings: plasma
Excerpt: as §2

[5] = LogD7.4; type: physicochemical; settings: pH 7.4
Excerpt: as §2

[6] = system: Wolbachia in C6/36 (wAlbB) cells; assay: Secondary concentration response HTS (IC50) anti-Wolbachia screen in C6/36 (wAlbB) insect cells; type: cell-based, Wolbachia pipientis wAlbB (in Aedes albopictus C6/36 cells); settings: Wolbachia, 168 h, 7-day incubation, 10-point concentration range
Procedure: Initially C6/36 (wAlbB) cells (insect cells stably infected with the Wolbachia target) from a single cryopreserved batch were recovered over 7 days prior to plating into 384-well assay ready plates (containing the test compounds), using a semi-automated process allowing for daily batches of ~150 plates, set up 4 days per week for 8 weeks. After a 7-day incubation period with the test compounds the plates were moved into the second fully automated stage (using the Agilent Technologies BioCel system) involving formaldehyde fixation, DNA staining of the insect cell nuclei (Hoechst) for toxicity analysis and antibody staining specific to the intracellular Wolbachia (wBmPAL primary antibody and far-red secondary antibody). In the final stage the fixed and stained plates from stage 2 were processed through automated data acquisition (High Res Biosolutions system, incorporating EnVision™ and acumen® plate readers). This industry standardised assay was then used to screen AstraZeneca’s full library of 1.3 million compounds within 10 weeks. In total this HTS included 30 × 3 week assays covering 3835 × 384-well plates. This primary HTS generated 20,255 hits defined as >80% reduction in Wolbachia with <60% toxicity to the host insect cell (eliminating false positives). This represents an overall hit rate of 1.56%. These compounds are depicted in chemical space in Fig. 2 (black points)[21].
The mosquito (Aedes albopictus) derived cell line C6/36 (ATCC® CRL 1660), stably infected with Wolbachia pipientis wAlbB (C6/36(wAlbB)), was maintained in Leibovitz L15 medium containing 2 mM L-glutamine, 1% nonessential amino acids, 2% tryptose phosphate broth and 20% heat-inactivated foetal bovine serum (FBS) at 26 °C[18]. This screen exclusively used cells from the large-scale cryopreserved batch produced as part of this campaign by culturing the cells at scale before cryopreservation (90% FBS and 10% DMSO). This produced a cell bank of 190 × 1 ml cryovials containing 3 × 10^7 cells per vial.
(§3) On day 0, a single cryovial was recovered and the cells washed before being transferred to a T225 cm^2 flask. After a 7-day recovery Wolbachia infection level (quality control (QC)) was checked by SYTO®11 DNA staining of both the host cell nuclei and intracellular Wolbachia. The end-point read out from the Operetta® high content imaging system (Perkin Elmer) was the percentage of cells infected with Wolbachia. This was obtained from cytoplasm texture analysis by the associated Harmony® software. Cells with a >50% of the population infected with Wolbachia were classed as having a good Wolbachia level and therefore used for screening through addition of 2000 cells per well into assay ready 384-well plates containing the test compounds. […] Each plate included on-board controls; vehicle/DMSO (total/maximum Wolbachia signal) or doxycycline 5 µM (null/minimum Wolbachia signal), resulting in single shot screening of 352 compounds per plate for the primary screen. […] QC plates were also created including full columns of the following controls; DMSO (total/max), 5 μM doxycycline (null/min), as well as 50 nM doxycycline (reference/medium Wolbachia signal). Daily batches contained ~150 compound plates in addition to the QC plates. Each compound plate was foil sealed before incubation for 7 days at 26 °C, 95% humidity and atmospheric air.
After 7 days of drug incubation, the plates were loaded into the fully automated BioCel system which performed the following additions; fixation and DNA staining (1.8% formaldehyde + 0.6 µg/ml Hoechst 33342, 20 min), permeabilisation (80 μl of PBS + 0.25% Triton-X 100, 30 min), blocking (PBS + 6% BSA, 40 min), overnight incubation in the Wolbachia-specific anti-wBmPAL primary antibody[34] […]

[7] = system: Wolbachia in C6/36 (wAlbB) cells; assay: Confirmatory re-assessment in the insect cell screen (cell assay EC50); type: cell-based, Wolbachia pipientis wAlbB (in Aedes albopictus C6/36 cells); settings: Wolbachia, C6/36; insect cell screen, re-sourced or re-synthesised samples
Excerpt: To further validate the hit molecules from these 9 clusters, samples were sourced either from the AstraZeneca compound inventory or through re-synthesis. All 18 samples were characterised by nuclear magnetic resonance (NMR) and mass spectroscopy to confirm their chemical structures and by HPLC/LCMS to establish their purity (Supplementary Table 5 and Supplementary Data 1). These samples were also subject to confirmatory re-assessment in both the insect cell screen and Mf assays for anti-Wolbachia potency alongside confirmation of DMPK properties (LogD7.4, aqueous solubility in pH 7.4 PBS, human microsomal turnover, rat hepatocyte turnover and human plasma protein binding) (Fig. 4, Supplementary Figure 1 and Supplementary Table 4).
as §3

[8] = Aqueous solubility in pH 7.4 PBS; type: physicochemical; settings: PBS pH 7.4, aqueous buffer; pH 7.4 PBS; read-out: Aqueous solubility in pH7.4 PBS
Excerpt: as §2

[9] = Rat hepatocyte clearance; type: in vitro ADME
Excerpt: as §2

[10] = system: Wolbachia within Brugia malayi Mf; assay: Anti-Wolbachia time-kill analysis (timed wash-out) in B. malayi Mf; type: cell-based; settings: for Exposure time to achieve a maximal Wolbachia reduction: 10x EC50, maximal reduction 70–90% normalised to vehicle control
Excerpt: To compare the dynamics of the in vitro phenotype of our hits with existing anti-Wolbachia therapies, we employed a timed wash-out strategy (Fig. 5) at 10x EC50 to establish the anti-Wolbachia time-kill kinetics of the selected chemotypes (1A–5A), using five replicates per compound. […].
Fig. 5 Anti-Wolbachia time-kill analysis. Representatives from the top five clusters (1A–5A), as well as established anti-Wolbachia antibacterials (doxycycline (white), minocycline (grey), rifampicin (black)) were assessed after exposure for 1 day and 2 days before washing and further incubation until the standard 6-day read out. wsp:gst ratio was normalised to the DMSO vehicle control resulting in a read out of mean percentage reduction from control. Doxycycline day 6 treatment represents the result for exposure to doxycycline at 5 µM for a full 6 days (no wash). The box extends from the 25th to the 75th percentile with the median presented by the central line. The whiskers are set at the minimum and maximum therefore indicating the range from five replicates. The cluster number is indicated by colour: cluster 1 (dark blue), 2 (magenta), 3 (teal), 4 (dark gold), and 5 (light blue)
The Mf were obtained by peritoneal lavage, using a catheter, of gerbils (Meriones unguiculatus) harbouring a patent infection of B. malayi. Mf were purified using a PD-10 desalting column (Fisher), centrifuged (311 RCF for 5 min at room temperature) before the addition of 8000 Mf/well of a 96-well plate (100 µl per well) in complete media consisting of RPMI supplemented with 10% FBS, 1% penicillin streptomycin and 1% amphotericin B. Compounds were diluted in complete media and 100 µl was added per well, providing a final concentration of 5 µM, with five replicates per compound. Each plate contained doxycycline (5 µM) and DMSO controls. After incubation at 37 °C for 6 days in 5% CO2, visual assessment of Mf motility was performed and scored from 0 to 4 per well (where 0 = no movement and 4 = highly motile). DNA extraction per sample was performed using the QIAmp DNA Mini Kit before quantitative PCR was performed to obtain the ratio of Wolbachia Surface Protein gene copy number (wsp) to Glutathione S-Transferase gene copy number (gst)[36]. The DNA was amplified using the primers as indicated in Supplementary Table 6.
as §1

Row | SMILES | EC50 [1] | microsomal CLint [2] | fraction unbound [4] | logD [5] | solubility [8] | Rat hepatocytes CLint [9] | IC50 [3] | IC50 [6] | EC50 [7] | Wolbachia reduction after a single day of exposure ([10]; 10x EC50, 1 day exposure, wash, 6-day read out, normalised to vehicle control) | Exposure time to achieve a maximal Wolbachia reduction [10]
1 | O=C(Cc1cc(F)cc(F)c1)NCC(=O)NC1C(=O)Nc2ccccc2SC1c1ccccc1 (centres unmarked) [9A, 2-(3,5-difluorophenyl)-N-(2-oxo-2-((4-oxo-2-phenyl-2,3,4,5-tetrahydrobenzo[b][1,4]thiazepin-3-yl)amino)ethyl)acetamide] | > 5000 nM | 228 µL/min/mg | 0.12 | 3 | 105 µM (≈ 50.6 µg/mL) | 28.0 µl/min/1x106 cells | > 30600 nM | 181 nM | 180 nM |  | 
2 | O=C(NCCCn1ccnc1)NC1C(=O)Nc2ccccc2SC1c1cc(F)ccc1F (centres unmarked) [9B, 1-(3-(1H-imidazol-1-yl)propyl)-3-(2-(2,5-difluorophenyl)-4-oxo-2,3,4,5-tetrahydrobenzo[b][1,4]thiazepin-3-yl)urea] | 2700 nM | > 300 µL/min/mg | 0.016 | 3.8 | 43 µM (≈ 19.7 µg/mL) | 171.6 µl/min/1x106 cells | > 30600 nM | 475 nM | 483 nM |  | 
3 | CN(C)c1ccc(O)c2c1C[C@H]1C[C@H]3[C@H](N(C)C)C(O)=C(C(N)=O)C(=O)[C@@]3(O)C(O)=C1C2=O [minocycline, reference compound] |  |  |  |  |  |  |  |  |  |  | > 2 days
4 | CO[C@H]1/C=C/O[C@@]2(C)Oc3c(C)c(O)c4c(O)c(c(/C=N/N5CCN(C)CC5)c(O)c4c3C2=O)NC(=O)/C(C)=C\C=C\[C@H](C)[C@H](O)[C@@H](C)[C@@H](O)[C@@H](C)[C@H](OC(C)=O)[C@@H]1C [rifampicin, reference compound] |  |  |  |  |  |  |  |  |  |  | > 2 days

Second part, led by results:

Row | EC50 [1] | microsomal CLint [2] | fraction unbound [4] | logD [5] | solubility [8] | Rat hepatocytes CLint [9] | SMILES | IC50 [3] | IC50 [6] | EC50 [7] | Wolbachia reduction after a single day of exposure ([10]; 10x EC50, 1 day exposure, wash, 6-day read out, normalised to vehicle control) | Exposure time to achieve a maximal Wolbachia reduction [10]
5 | > 5000 nM | > 300 µL/min/mg | 0.034 | 3.1 | 6 µM (≈ 2.46 µg/mL) | > 300 µl/min/1x106 cells | CN(Cc1cccc(Br)c1)S(=O)(=O)c1ccc2c(c1)C(=O)NCC2 [8B, N-(3-bromobenzyl)-N-methyl-1-oxo-1,2,3,4-tetrahydroisoquinoline-7-sulfonamide] | > 30600 nM | 535 nM | 873 nM |  | 
6 | 250 nM |  |  |  |  |  | C[C@H]1c2cccc(O)c2C(=O)C2=C(O)[C@]3(O)C(=O)C(C(N)=O)=C(O)[C@@H](N(C)C)[C@@H]3[C@@H](O)[C@@H]21 [doxycycline, reference compound] |  |  |  | 9% | > 2 days
